Reference: the NIST ThermoML archive (doi:10.1016/j.fluid.2016.08.019)
± gives the expanded uncertainty stated by the source.

Columns and labels:
[1] = Molar enthalpy of transition or fusion; conditions: Crystal; DSC
[2] = Crystal; DTA

Molar enthalpy of transition or fusion [1]: 4.89 ± 0.222 kcal/mol
Normal melting temperature [2]: 138.33 ± 0.39 °C
Structure (SMILES): CCOc1ccccc1C(N)=O [Ethenzamide]
